PubChem BioAssay AID248 (DTP/NCI, 2004)
Several values for one entry are separate records, joined by “and”; a condition that tells them apart may be missing. Equal entries are not always repeated. Inconclusive results and toxic doses are left out.

System: L1210 leukemia ip in BDF1 mice, survival T/C
Assay: NCI In Vivo Anticancer Drug Screen. Data for tumor model L1210 Leukemia (intraperitoneal) in B6D2F1 (BDF1) mice
Conditions: higher = longer survival
How it was run: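 Read-out is survival time, reported as the treated-group measurement over the vehicle-control measurement.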

[1] = endpoint: mean survival time, dose: 100.0 mg/kg/injection, schedule: Q01DX009 (ip), vehicle: Klucel (hydroxypropylcellulose) (HPC)
[2] = endpoint: mean survival time, dose: 200.0 mg/kg/injection, schedule: Q01DX009 (ip), vehicle: Klucel (hydroxypropylcellulose) (HPC)
[3] = endpoint: mean survival time, dose: 400.0 mg/kg/injection, schedule: Q01DX009 (ip), vehicle: Klucel (hydroxypropylcellulose) (HPC)
[4] = endpoint: mean survival time, dose: 3.12 mg/kg/injection, schedule: Q01DX009 (ip), vehicle: saline
[5] = endpoint: mean survival time, dose: 6.25 mg/kg/injection, schedule: Q01DX009 (ip), vehicle: saline
[6] = endpoint: mean survival time, dose: 25.0 mg/kg/injection, schedule: Q01DX009 (ip), vehicle: saline
[7] = endpoint: mean survival time, dose: 25.0 mg/kg/injection, schedule: Q04DX003 (ip), vehicle: saline
[8] = endpoint: mean survival time, dose: 50.0 mg/kg/injection, schedule: Q01DX009 (ip), vehicle: saline
[9] = endpoint: mean survival time, dose: 50.0 mg/kg/injection, schedule: Q04DX003 (ip), vehicle: saline
[10] = endpoint: mean survival time, dose: 100.0 mg/kg/injection, schedule: Q04DX003 (ip), vehicle: saline
[11] = endpoint: mean survival time, dose: 100.0 mg/kg/injection, schedule: Q01DX009 (ip), vehicle: water
[12] = endpoint: mean survival time, dose: 200.0 mg/kg/injection, schedule: Q01DX009 (ip), vehicle: water
[13] = endpoint: mean survival time, dose: 100.0 mg/kg/injection, schedule: Q01DX001 (ip), vehicle: saline
[14] = endpoint: mean survival time, dose: 200.0 mg/kg/injection, schedule: Q01DX001 (ip), vehicle: saline
[15] = endpoint: mean survival time, dose: 400.0 mg/kg/injection, schedule: Q01DX001 (ip), vehicle: saline
[16] = endpoint: mean survival time, dose: 12.5 mg/kg/injection, schedule: Q01DX009 (ip), vehicle: saline
[17] = endpoint: mean survival time, dose: 100.0 mg/kg/injection, schedule: Q04DX003 (ip), vehicle: saline with Tween-80
[18] = endpoint: mean survival time, dose: 200.0 mg/kg/injection, schedule: Q04DX003 (ip), vehicle: saline with Tween-80
[19] = endpoint: mean survival time, dose: 400.0 mg/kg/injection, schedule: Q04DX003 (ip), vehicle: saline with Tween-80

Cc1cccc(Cl)c1NC(=O)Nc1ccc(S(N)(=O)=O)cc1
T/C [1]: 94 % of control
T/C [2]: 102 % of control
T/C [3]: 92 % of control

CC1(Cl)C(=O)NC(=O)C1Cl (stereo not drawn)
T/C [4]: 92 % of control
T/C [5]: 87 % of control
T/C [6]: 87 % of control
T/C [7]: 103 % of control
T/C [8]: 92 % of control
T/C [9]: 97 % of control
T/C [10]: 110 % of control

Nc1ccn(CC(=O)N2CCOCC2)c(=O)n1
T/C (endpoint: mean survival time, dose: 25.0 mg/kg/injection, schedule: Q01DX009 (ip), vehicle: water): 93 % of control
T/C (endpoint: mean survival time, dose: 50.0 mg/kg/injection, schedule: Q01DX009 (ip), vehicle: water): 87 % of control
T/C [11]: 87 % of control
T/C [12]: 93 % of control
T/C (endpoint: mean survival time, dose: 400.0 mg/kg/injection, schedule: Q01DX009 (ip), vehicle: water): 88 % of control

CC(C)Oc1ccc(Nc2ccccc2)cc1
T/C (endpoint: mean survival time, dose: 50.0 mg/kg/injection, schedule: Q01DX009 (ip), vehicle: Klucel (hydroxypropylcellulose) (HPC)): 100 % of control
T/C [13]: 96 % of control
T/C [1]: 99 % of control
T/C [14]: 107 % of control
T/C [2]: 100 % of control
T/C [15]: 88 % of control

CN(C=O)C(=S)[S-].CN(C=O)C(=S)[S-].CN(C=O)C(=S)[S-].O=C(Nc1ccc(S(=O)(=O)Nc2ccc(N=Nc3ccc4nc([S-])sc4c3)cc2)cc1)C(N1CC1)(N1CC1)N1CC1.[Pd]
T/C [5]: 109 % of control
T/C (endpoint: mean survival time, dose: 6.25 mg/kg/injection, schedule: Q04DX003 (ip), vehicle: saline): 108 % of control
T/C [16]: 101 % of control
T/C (endpoint: mean survival time, dose: 12.5 mg/kg/injection, schedule: Q04DX003 (ip), vehicle: saline): 106 % of control
T/C [6]: 98 % of control
T/C [7]: 103 % of control

CNC(=O)C(C)(C)Br
T/C [10]: 105 % of control
T/C (endpoint: mean survival time, dose: 200.0 mg/kg/injection, schedule: Q04DX003 (ip), vehicle: saline): 109 % of control
T/C (endpoint: mean survival time, dose: 400.0 mg/kg/injection, schedule: Q04DX003 (ip), vehicle: saline): 107 % of control

CC(=O)c1ccc(OC(=O)Nc2ccc(Cl)cc2)cc1
T/C (endpoint: mean survival time, dose: 25.0 mg/kg/injection, schedule: Q01DX009 (ip), vehicle: saline with Tween-80): 106 % of control and 108 % of control
T/C (endpoint: mean survival time, dose: 50.0 mg/kg/injection, schedule: Q01DX009 (ip), vehicle: saline with Tween-80): 106 % of control and 112 % of control
T/C (endpoint: mean survival time, dose: 100.0 mg/kg/injection, schedule: Q04DX002 (ip), vehicle: saline with Tween-80): 100 % of control and 103 % of control
T/C [17]: 103 % of control
T/C (endpoint: mean survival time, dose: 200.0 mg/kg/injection, schedule: Q04DX002 (ip), vehicle: saline with Tween-80): 95 % of control and 92 % of control
T/C [18]: 108 % of control
T/C (endpoint: mean survival time, dose: 400.0 mg/kg/injection, schedule: Q04DX002 (ip), vehicle: saline with Tween-80): 97 % of control and 100 % of control

Cc1cc(O)ccc1C1=[N+](C)CC(C)S1 (stereo not drawn)
T/C (endpoint: mean survival time, dose: 12.5 mg/kg/injection, schedule: Q04DX002 (ip), vehicle: saline): 103 % of control
T/C (endpoint: mean survival time, dose: 25.0 mg/kg/injection, schedule: Q04DX002 (ip), vehicle: saline): 100 % of control
T/C (endpoint: mean survival time, dose: 50.0 mg/kg/injection, schedule: Q04DX002 (ip), vehicle: saline): 103 % of control

CCN(CC)c1ccc(C(=S)c2ccc(N(CC)CC)cc2)cc1
T/C (endpoint: mean survival time, dose: 100.0 mg/kg/injection, schedule: Q01DX001 (ip), vehicle: other): 91 % of control
T/C (endpoint: mean survival time, dose: 200.0 mg/kg/injection, schedule: Q01DX001 (ip), vehicle: other): 91 % of control
T/C (endpoint: mean survival time, dose: 400.0 mg/kg/injection, schedule: Q01DX001 (ip), vehicle: other): 95 % of control

Cc1ccc(NC(=S)NNC(=S)NNc2ccccc2)cc1C
T/C [1]: 90 % of control
T/C [17]: 89 % of control
T/C [2]: 102 % of control
T/C [18]: 93 % of control
T/C [3]: 103 % of control
T/C [19]: 91 % of control

CCC(=O)NC1=C(N2CC2C)C(=O)C(NC(=O)CC)=C(N2CC2C)C1=O (stereo not drawn)
T/C [4]: 111 % of control
T/C [5]: 124 % of control
T/C [16]: 153 % of control
T/C [6]: 177 % of control
T/C (endpoint: mean survival time, dose: 35.0 mg/kg/injection, schedule: Q01DX009 (ip), vehicle: Klucel (hydroxypropylcellulose) (HPC)): 103 % of control

C[N+]([O-])(CCC#N)CC(=O)O (stereo not drawn)
T/C [13]: 97 % of control
T/C [14]: 101 % of control

C[N+]1(CCNC2=CC(=O)C(NCC[N+]3(C)CCOCC3)=CC2=O)CCOCC1
T/C (endpoint: mean survival time, dose: 5.0 mg/kg/injection, schedule: Q01DX001 (ip), vehicle: saline): 103 % of control
T/C (endpoint: mean survival time, dose: 10.0 mg/kg/injection, schedule: Q01DX001 (ip), vehicle: saline): 101 % of control
T/C (endpoint: mean survival time, dose: 20.0 mg/kg/injection, schedule: Q01DX001 (ip), vehicle: saline): 101 % of control
T/C (endpoint: mean survival time, dose: 40.0 mg/kg/injection, schedule: Q01DX001 (ip), vehicle: saline): 101 % of control
T/C (endpoint: mean survival time, dose: 80.0 mg/kg/injection, schedule: Q01DX001 (ip), vehicle: saline): 97 % of control

CS(=O)(=O)OCCN(CCOS(C)(=O)=O)c1ccc(C=Nc2cc(Br)c(O)c(Br)c2)c(Cl)c1
T/C (endpoint: mean survival time, dose: 100.0 mg/kg/injection, schedule: Q04DX003 (ip), vehicle: Klucel (hydroxypropylcellulose) (HPC)): 98 % of control
T/C (endpoint: mean survival time, dose: 200.0 mg/kg/injection, schedule: Q04DX003 (ip), vehicle: Klucel (hydroxypropylcellulose) (HPC)): 98 % of control
T/C (endpoint: mean survival time, dose: 400.0 mg/kg/injection, schedule: Q04DX003 (ip), vehicle: Klucel (hydroxypropylcellulose) (HPC)): 97 % of control

CC(C)NCCC(=O)c1ccc(OCc2ccccc2)cc1
T/C [6]: 106 % of control
T/C [8]: 110 % of control
T/C (endpoint: mean survival time, dose: 100.0 mg/kg/injection, schedule: Q01DX009 (ip), vehicle: saline): 106 % of control and 119 % of control

O=C(NC(Cc1ccccc1)C(=O)N1CCOCC1)c1ccccc1 (stereo not drawn)
T/C [13]: 91 % of control
T/C [14]: 98 % of control
T/C [15]: 89 % of control

CCCCCCC/C=N\N=C(N)N
T/C (endpoint: mean survival time, dose: 15.0 mg/kg/injection, schedule: Q01DX Z (ip), vehicle: carboxymethylcellulose (CMC)): 97 % of control
T/C (endpoint: mean survival time, dose: 30.0 mg/kg/injection, schedule: Q01DX Z (ip), vehicle: carboxymethylcellulose (CMC)): 97 % of control
T/C (endpoint: mean survival time, dose: 60.0 mg/kg/injection, schedule: Q01DX Z (ip), vehicle: carboxymethylcellulose (CMC)): 101 % of control

CC1=C(/C=C/C(C)=C/C=C/C(C)=C/C(=O)O)C(C)(C)CCC1
T/C (endpoint: mean survival time, dose: 88.0 mg/kg/injection, schedule: Q01DX009 (ip), vehicle: steriod suspending solution): 89 % of control
T/C (endpoint: mean survival time, dose: 100.0 mg/kg/injection, schedule: Q01DX009 (ip), vehicle: saline with Tween-80): 100 % of control
T/C (endpoint: mean survival time, dose: 200.0 mg/kg/injection, schedule: Q01DX001 (sc), vehicle: steriod suspending solution): 104 % of control
T/C (endpoint: mean survival time, dose: 200.0 mg/kg/injection, schedule: Q01DX009 (ip), vehicle: saline with Tween-80): 94 % of control
T/C (endpoint: mean survival time, dose: 400.0 mg/kg/injection, schedule: Q01DX001 (sc), vehicle: steriod suspending solution): 98 % of control
T/C (endpoint: mean survival time, dose: 400.0 mg/kg/injection, schedule: Q01DX009 (ip), vehicle: saline with Tween-80): 91 % of control
T/C (endpoint: median survival time, dose: 25.0 mg/kg/injection, schedule: Q01DX009 (ip), vehicle: other): 111 % of control
T/C (endpoint: median survival time, dose: 50.0 mg/kg/injection, schedule: Q01DX009 (ip), vehicle: other): 100 % of control
T/C (endpoint: median survival time, dose: 100.0 mg/kg/injection, schedule: Q01DX009 (ip), vehicle: other): 100 % of control
T/C (endpoint: median survival time, dose: 200.0 mg/kg/injection, schedule: Q01DX009 (ip), vehicle: other): 100 % of control

CCNC1C2CCC(C2)C1c1ccccc1 (stereo not drawn)
T/C [4]: 94 % of control
T/C [5]: 94 % of control
T/C [16]: 89 % of control
T/C [6]: 93 % of control
T/C [7]: 89 % of control
T/C [9]: 94 % of control

CC(=O)c1cccc(NC(=O)CCCCCCCCC(=O)Nc2cccc(C(C)=O)c2)c1
T/C [1]: 96 % of control
T/C [2]: 91 % of control
T/C [3]: 94 % of control

Nc1ccn(CC(=O)c2ccc(Cl)s2)c(=O)n1
T/C [11]: 95 % of control
T/C (endpoint: mean survival time, dose: 100.0 mg/kg/injection, schedule: Q04DX003 (ip), vehicle: water): 101 % of control
T/C [12]: 101 % of control
T/C (endpoint: mean survival time, dose: 200.0 mg/kg/injection, schedule: Q04DX003 (ip), vehicle: water): 100 % of control
T/C (endpoint: mean survival time, dose: 400.0 mg/kg/injection, schedule: Q04DX003 (ip), vehicle: water): 102 % of control

COC(=O)[C@]1(C)CCC[C@]2(C)c3cc(C(C)=O)c(C(C)C)cc3CC[C@@H]12
T/C [17]: 102 % of control
T/C [18]: 105 % of control
T/C [19]: 98 % of control

Cc1nc([Se]c2nc(C)n3ccncc23)c2cnccn12
T/C [17]: 98 % of control
T/C [18]: 95 % of control
T/C [19]: 93 % of control
